Test [1] relates to mice. Put plainly: acetic acid mouse writhing test (analgesic effect, s.c.). It is filed as in vivo, male CD-1 mice. As to conditions: sc; mouse acetic acid writhing, s.c., dose reducing the number of writhes by 50%; IA @ dose = inactive at that dose; read-out: ED50. As to the method: (A) Analgesic effects upon mice (acetic acid writhing test).
TEST A. ACETIC ACID MOUSE WRITHING TEST
The analgesic effects of test compounds were determined in mice by use of the acetic acid writhing test described by B. J. R. Whittle, Brit. J. Pharmacol., 22:246 (1964). In this test at least three groups of five male CD-1 mice (18-22 g) each were given subcutaneous doses of the test drug dissolved in either distilled water or distilled water acidified with HCl depending on the solubility of the compound. In all cases, 0.4 milliliter of a 0.5% V/V acetic acid in distilled water solution was administered intraperitoneally 15 minutes post drug. The number of writhes in a 20 min. interval beginning 5 minutes after the acetic acid injection were determined and compared with the number of writhes in control groups which had received only acetic acid.
Percent inhibition of writhing was calculated as: [formula]
The ED50 dose, i.e., the dose required to reduce the number of writhes by 50%, was determined graphically from a plot of % inhibition as a probit versus log dose. Confidence limits of 95% were calculated on the basis of those results falling in the range 16-84% inhibition. See Litchfield, J. T. and Wilcoxon, F., J. Pharmacol. Exp. Ther., 96, 99-113, (1949).

In test [2] the test system is rats. Put plainly: narcotic antagonist activity, modified rat tail flick test against morphine. It is filed as in vivo, male albino Wistar rats. Also on record: AD50: unit not given here. The conditions noted are these: for AD50: rat tail flick, dose inhibiting the morphine (ED80 dose s.c.) effect by 50%, IA @ dose = inactive at that dose; for analgesic (agonist)/narcotic antagonist activity profile: in words, conclusion from Tests A and B. The method, then: (B) Narcotic antagonist activity in rats (modified rat tail flick test).
TEST B. EVALUATION OF NARCOTIC ANTAGONIST ACTIVITY
The narcotic antagonist effects of test compounds were determined by a modification of the rat tail flick procedure of Harris and Pierson (J. Pharmacol. Exp. Ther. 143:141 [1964]).
Male albino Wistar rats (100-120 g) were used for this study. A rat's tail is so placed so as to cover a photocell. Heat is applied by a lamp in a reflector with a timer being connected to the lamp and photocell so that the timer goes on when the light is turned on and is turned off when the photocell is uncovered. A rheostat, incorporated into a heating lamp is used to adjust the intensity of the light falling on the tail of the rat such that the rat's control reaction time is from two to four seconds. Animals with a control reaction time outside this range are rejected. The rheostat adjustment is made only if a significant proportion (more than 2 out of every 10 rats) of the reaction times are outside the range of two to four seconds. Groups of five rats were used each time, and two control times were determined at 60 and 30 minutes prior to subcutaneous injection of the drug.
Thirty minutes after the last control run the test drug was given intraperitoneally. This was followed ten minutes later by an ED80 dose of morphine subcutaneously. The animals were retested at 20 minutes after the morphine injection. Control animals were given vehicle and morphine only. The data were calculated as follows: [formula]
The data were plotted on log-probit paper and AD50 values, i.e., the dose required to inhibit the morphine effect by 50% within 95% confidence limits, were determined by the method of Litchfield and Wilcoxon.

Test [3] can be described thus: charcoal meal test with attempted naloxone reversal. The class given is in vivo.

Each structure is given as a SMILES string. Structures can show the parent of a compound that is named as a salt.

As to `C[C@H]1C[C@H]2[C@H]3Cc4ccc(O)cc4[C@@]2(CCN3CC2CC2)CC1=O.Cl` [TR-5177, 17-Cyclopropylmethyl-3-hydroxy-7α-methylmorphinan-6-one Hydrochloride], the median effective dose (ED50) in test [1] stood at 0.87 mg/kg. Besides, the AD50 in test [2] came to 5.2. The “action in charcoal meal test upon attempted naloxone reversal” value in test [3] (attempted reversal with naloxone, Hydrochloride) is listed as “novel action in charcoal meal test upon attempted naloxone reversal”. Also, the “duration of action suggested by charcoal meal test” value in test [3] (inferred from novel action upon attempted naloxone reversal) is “may have a longer duration of action than would be expected”.
For the compound `C[C@@H]1[C@H]2[C@H]3Cc4ccc(O)cc4[C@@]2(CCN3CC2CC2)CC(=O)[C@H]1C` [TR-5196, 17-Cyclopropylmethyl-7α,8β-dimethyl-3-hydroxy-morphinan-6-one], the 50% effective dose (ED50) in test [1] is 7.8 mg/kg. The compound further had an AD50 in test [2] of 0.12.
As for `COc1ccc2c(c1)[C@]13CCN(CC4CC4)[C@H](C2)[C@@H]1[C@@H](C)[C@H](C)C(=O)C3` [TR-5188, 17-Cyclopropylmethyl-7α,8β-dimethyl-3-methoxy-morphinan-6-oneHydrochloride], in test [1], the ED50 came to 1.03 mg/kg. In test [2], the “analgesic (agonist)/narcotic antagonist activity profile” value is reported as “mixed analgesic/narcotic antagonist” and the AD50 was 4.7.
The matching figures for `C[C@H]1CC(=O)C[C@]23CCN(CC4CCC4)[C@H](Cc4ccc(O)cc42)[C@H]13.Cl` [TR-5130, 17-Cyclobutylmethyl-3-hydroxy-8β-methylmorphinan-6-one Hydrochloride]: 0.11 mg/kg, “mixed agonist/antagonist activity” and 1.05.

The record behind these values is patent US4230712A, “7-Methyl-8β-lower alkyl or 7-methyl-8-lower alkyl B/C cis or trans morphinan-6-one compounds and therapeutic method of treating pain employing them” (Miles Laboratories, Inc., priority 1978, dated 1980).
